Where “and” joins values, the source holds several entries; their conditions need not be identical. Equal values may be shown once. Read-outs that look alike come from different tables or passages of the source.
What was measured:
Experiment in all cases: biochemical
Type in all cases: binding
[1] = biological target: DRB1*1101 (Homo sapiens, UniProt P01903+P01911, A100R/A169T/A87E/I96F/K41T/L162R/M171V/P40S/Q125H/Q178H/Q39Y/Q99D/R42S/S66Y/T262R/V115G/W38E); settings: read-out: IC50 nM to purified HLA DRB1*1101
Chain of DRB1*1101 (P01903 26-254 limits assumed, other chains not shown): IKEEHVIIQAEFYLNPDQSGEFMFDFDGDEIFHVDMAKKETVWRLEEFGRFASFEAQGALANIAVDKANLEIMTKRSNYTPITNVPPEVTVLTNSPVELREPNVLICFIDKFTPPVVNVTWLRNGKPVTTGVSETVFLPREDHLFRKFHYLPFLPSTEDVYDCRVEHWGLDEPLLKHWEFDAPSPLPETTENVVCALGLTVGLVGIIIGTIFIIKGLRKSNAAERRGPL

[2] = biological target: T1, DRB1*0101 (Homo sapiens, UniProt P01903+P01911, A100R/D57E/F55L/F60I/F76Y/I96L/L162R/M171V/P40L/Q125E/R42F/V115G/Y59C)
T1 construct: made in house; host or cells: EBV-transformed homozygous human B cell lines, transfected fibroblasts or single-allele 721.221 transfectants

[3] = biological target: DRB1*0405 (Homo sapiens, UniProt P01903+P01911, A100R/A169T/D86S/F76Y/I96L/K127E/L162R/M171V/N62H/P40V/Q125Y/R42H/S133A/S149N/S66Y/V115G/V209L/W38E); settings: read-out: IC50 nM to purified HLA DRB1*0405
[4] = biological target: T2, DRB4*0101 (Homo sapiens, UniProt P01903+P13762, G164S); settings: IC50 nM to purified HLA DRB4*0101
T2 construct: made in house; host or cells: EBV-transformed homozygous human B cell lines, transfected fibroblasts or single-allele 721.221 transfectants

[5] = biological target: T3, DRB1*1501 (Homo sapiens, UniProt P01903+P01911); settings: read-out: IC50 nM to purified HLA DRB1*1501
T3 construct: made in house; host or cells: EBV-transformed homozygous human B cell lines, transfected fibroblasts or single-allele 721.221 transfectants

[6] = biological target: DRB1*0404 (Homo sapiens, UniProt P01903+P01911, A100R/A169T/F76Y/I96L/K127E/L162R/M171V/N62H/P40V/Q125Y/R42H/S133A/S149N/S66Y/V209L/W38E)
[7] = biological target: DRB1*1302 (Homo sapiens, UniProt P01903+P01911, A100E/A169T/K41T/L162R/M171V/P40S/Q125H/Q178H/Q39Y/Q99D/R42S/S66N/T262R/V115G/W38E/Y61H); settings: read-out: IC50 nM to purified HLA DRB1*1302
Chain of DRB1*1302 (P01903 26-254 limits assumed, other chains not shown): as above

[8] = biological target: T4, DRB1*0301 (Homo sapiens, UniProt P01903+P01911, A100K/A102G/A103R/A169T/F55Y/I96L/K41T/L162R/M171V/P40S/Q125H/Q178H/Q39Y/R42S/S66N/T106N/T262R/W38E/Y61H)
T4 construct: made in house; host or cells: EBV-transformed homozygous human B cell lines, transfected fibroblasts or single-allele 721.221 transfectants
T4 sequence (P01903 26-254, other chains not shown): as the sequence (P01903 26-254 limits assumed, other chains not shown) above

[9] = biological target: T5, DRB1*0401 (Homo sapiens, UniProt P01903+P01911, A100K/A169T/F76Y/I96L/K127E/L162R/M171V/N62H/P40V/Q125Y/R42H/S133A/S149N/S66Y/V115G/V209L/W38E); settings: read-out: IC50 nM to purified HLA DRB1*0401
T5 construct: made in house; host or cells: EBV-transformed homozygous human B cell lines, transfected fibroblasts or single-allele 721.221 transfectants

[10] = biological target: T6, DRB5*0101 (Homo sapiens, UniProt P01903+Q30154)
T6 construct: made in house; host or cells: EBV-transformed homozygous human B cell lines, transfected fibroblasts or single-allele 721.221 transfectants

[11] = biological target: DRB1*0701 (Homo sapiens, UniProt P01903+P01911, A100R/A102G/A103Q/D57E/D86V/E43K/F76Y/K127E/L162R/M171V/P40G/Q125H/Q99D/R33Q/R42Y/R54Q/S133A/S66F/T210M/V115G/Y107V/Y59L/Y89S)
[12] = IC50 nM to purified HLA DRB1*0101
[13] = IC50 nM to purified HLA DRB1*0404

Row | SMILES | IC50 [1] [nM] | IC50 [2, 12] | IC50 [3] [nM] | IC50 [5] | IC50 [6, 13] [nM] | IC50 [7] [nM] | IC50 [8] [µM] | IC50 [9] | other results
1 | CC[C@H](C)[C@H](NC(=O)[C@H](CO)NC(=O)[C@H](CCC(N)=O)NC(=O)[C@H](CCC(=O)O)NC(=O)[C@H](CC(=O)O)NC(=O)[C@H](CCCNC(=N)N)NC(=O)CNC(=O)[C@H](CO)NC(=O)[C@@H](NC(=O)[C@@H](NC(=O)[C@H](CC(C)C)NC(=O)[C@H](CCC(N)=O)NC(=O)[C@@H](NC(=O)[C@@H](N)CC(C)C)[C@@H](C)CC)[C@@H](C)CC)C(C)C)C(=O)N[C@@H](C)C(=O)O [Flu.PB2.384] | 2010 | 3230 nM | 460 | 420 nM | 90 | 4680 | 0.053 | 83 nM | IC50 [4]: 9.9 nM
2 | CC[C@H](C)[C@H](NC(=O)[C@H](CCC(=O)O)NC(=O)[C@H](Cc1ccccc1)NC(=O)[C@@H](N)CCCNC(=N)N)C(=O)N[C@H](C(=O)NCC(=O)N[C@H](C(=O)N[C@@H](CCSC)C(=O)N[C@@H](CCCNC(=N)N)C(=O)N[C@@H](CCCNC(=N)N)C(=O)N[C@@H](CC(C)C)C(=O)N[C@@H](C)C(=O)N[C@@H](CC(=O)O)C(=O)N[C@@H](CCC(N)=O)C(=O)N[C@@H](CO)C(=O)O)[C@@H](C)O)[C@@H](C)O [Flu.PA.207] | 19 | – | – | – | – | – | – | – | IC50 [10]: 9.2 nM
3 | CC[C@H](C)[C@H](NC(=O)CNC(=O)[C@@H]1CCCN1C(=O)[C@H](Cc1c[nH]cn1)NC(=O)[C@H](CO)NC(=O)[C@H](CCC(=O)O)NC(=O)[C@H](CCC(=O)O)NC(=O)[C@H](CC(C)C)NC(=O)[C@H](Cc1ccccc1)NC(=O)[C@H](C)NC(=O)[C@H](CCSC)NC(=O)[C@H](C)N)C(=O)N[C@@H](Cc1ccccc1)C(=O)N[C@@H](CCC(=O)O)C(=O)N[C@@H](CC(N)=O)C(=O)O [Flu.PB1.94] | – | – | – | – | – | – | 0.4 | – | IC50 [11]: 84 nM
4 | CC[C@H](C)[C@H](NC(=O)[C@H](CCC(=O)O)NC(=O)CNC(=O)[C@@H](N)C(C)C)C(=O)N[C@@H](CO)C(=O)N1CCC[C@H]1C(=O)N[C@@H](CC(C)C)C(=O)N1CCC[C@H]1C(=O)N[C@@H](CO)C(=O)N[C@@H](CC(C)C)C(=O)N1CCC[C@H]1C(=O)NCC(=O)N[C@@H](Cc1c[nH]cn1)C(=O)N[C@H](C(=O)N[C@@H](CC(=O)O)C(=O)O)[C@@H](C)O [Flu.NS1.160] | 90 | 14 nM and 12 nM | – | 38 nM and 28 nM | 8.5 | > 10000 | > 10 | 31 nM and 16 nM | IC50 [11]: > 10000 nM; IC50 ([2]; IC50 nM to purified HLA DRB1*0101, Table 4): 14 nM; IC50 ([5]; Table 4): 38 nM; IC50 ([9]; Table 4): 31 nM
5 | CC[C@H](C)[C@H](NC(=O)[C@H](CCSC)NC(=O)[C@@H]1CCCN1C(=O)[C@H](CC(N)=O)NC(=O)[C@@H](N)Cc1ccccc1)C(=O)N[C@H](C(=O)N[C@@H](CCC(=O)O)C(=O)N[C@@H](CC(C)C)C(=O)N[C@@H](C)C(=O)N[C@@H](CCC(=O)O)C(=O)N[C@@H](CCCCN)C(=O)N[C@H](C(=O)N[C@@H](CCSC)C(=O)N[C@@H](CCCCN)C(=O)N[C@@H](CCC(=O)O)C(=O)O)[C@@H](C)O)C(C)C [Flu.PA.12] | – | 48 nM | 1240 | – | 610 | 1250 | 0.744 | 29 nM | –
6 | CC[C@H](C)[C@H](NC(=O)[C@H](CC(N)=O)NC(=O)[C@H](Cc1ccc(O)cc1)NC(=O)[C@H](CC(C)C)NC(=O)[C@H](CC(N)=O)NC(=O)[C@@H]1CCCN1)C(=O)N[C@@H](CCCNC(=N)N)C(=O)N[C@@H](CC(N)=O)C(=O)N[C@@H](CC(C)C)C(=O)N[C@@H](Cc1c[nH]cn1)C(=O)N[C@H](C(=O)N1CCC[C@H]1C(=O)N[C@@H](CCC(=O)O)C(=O)N[C@H](C(=O)N[C@@H](CS)C(=O)O)C(C)C)[C@@H](C)CC [Flu.PB1.599] | – | – | – | – | – | – | – | – | IC50 ([10]; read-out: IC50 nM to purified HLA DRB5*0101): 2310 nM
7 | CC[C@H](C)[C@H](NC(=O)[C@H](CCSC)NC(=O)[C@H](CS)NC(=O)[C@H](CC(=O)O)NC(=O)[C@H](CCC(=O)O)NC(=O)[C@H](CCC(N)=O)NC(=O)[C@H](CO)NC(=O)[C@H](Cc1ccccc1)NC(=O)[C@@H](NC(=O)[C@H](CCSC)NC(=O)[C@H](C)N)C(C)C)C(=O)N[C@@H](CCCCN)C(=O)N[C@@H](C)C(=O)N[C@H](C(=O)N[C@@H](CCCNC(=N)N)C(=O)O)C(C)C [Flu.PB2.404] | – | 11000 nM | 6780 | – | 336 | 9200 | 0.718 | 3280 nM | –
8 | CC[C@H](C)[C@H](NC(=O)[C@H](CCSC)NC(=O)[C@H](CO)NC(=O)[C@@H](N)CCC(=O)O)C(=O)N[C@@H](CCC(=O)O)C(=O)N[C@@H](C)C(=O)N[C@@H](CCC(=O)O)C(=O)N[C@@H](CO)C(=O)N[C@@H](CO)C(=O)N[C@H](C(=O)N[C@@H](CCCCN)C(=O)N[C@@H](CCC(=O)O)C(=O)N[C@@H](CCCCN)C(=O)N[C@@H](CC(=O)O)C(=O)N[C@@H](CCSC)C(=O)O)C(C)C [Flu.PA.596] | 12000 | – | 72 | – | 121 | – | – | – | IC50 [10]: 600 nM
9 | CC[C@H](C)[C@H](NC(=O)CNC(=O)[C@@H](NC(=O)[C@@H](NC(=O)[C@H](CO)NC(=O)[C@H](C)NC(=O)[C@H](C)NC(=O)[C@@H](NC(=O)[C@@H](NC(=O)[C@H](CC(C)C)NC(=O)[C@@H]1CCCN1C(=O)[C@@H](N)CC(=O)O)C(C)C)C(C)C)[C@@H](C)CC)[C@@H](C)CC)C(=O)N[C@@H](CC(C)C)C(=O)N[C@@H](Cc1c[nH]cn1)C(=O)N[C@@H](CC(C)C)C(=O)O [Flu.M2.27] | 1800 | – | 630 | 2200 nM | – | – | – | 92 nM | IC50 ([11]; read-out: IC50 nM to purified HLA DRB1*0701): 1300 nM; IC50 ([2]; read-out: IC50 nM to purified HLA DRB1*0101): 78 nM; IC50 ([6]; read-out: IC50 nM to purified HLA DRB1*0404): 23 nM
10 | CC[C@H](C)[C@H](NC(=O)CNC(=O)[C@@H](NC(=O)[C@@H]1CCCN1C(=O)[C@H](CCCNC(=N)N)NC(=O)[C@@H](N)CCCNC(=N)N)C(C)C)C(=O)N[C@@H](CO)C(=O)N[C@@H](CO)C(=O)N[C@@H](CCSC)C(=O)N[C@H](C(=O)N[C@@H](CCC(=O)O)C(=O)N[C@@H](C)C(=O)N[C@@H](CCSC)C(=O)N[C@H](C(=O)N[C@@H](CO)C(=O)O)C(C)C)C(C)C [Flu.PB1.709] | – | – | – | 240 nM | – | – | – | – | IC50 [11]: 1800 nM
11 | CC[C@H](C)[C@H](NC(=O)[C@H](CO)NC(=O)[C@@H](NC(=O)[C@@H](NC(=O)[C@@H](NC(=O)[C@@H](N)CCCNC(=N)N)C(C)C)C(C)C)C(C)C)C(=O)N[C@@H](CC(=O)O)C(=O)N[C@@H](CCCNC(=N)N)C(=O)N[C@@H](Cc1ccccc1)C(=O)N[C@@H](CC(C)C)C(=O)N[C@@H](CCCNC(=N)N)C(=O)N[C@H](C(=O)N[C@@H](CCCNC(=N)N)C(=O)N[C@@H](CC(=O)O)C(=O)N[C@@H](CCC(N)=O)C(=O)O)C(C)C [Flu.PB2.496] | – | – | 2050 | – | 400 | 8.1 | 0.067 | 111 nM | –
